{"source": "patent US20220378756A1", "about": "“ACTIVATING PYRUVATE KINASE R” (FORMA Therapeutics, Inc., priority 2019, published 2022)", "key": {"[1]": {"tested_on": "H295R adreno-cortical carcinoma cell line", "assay": "Steroid modulation screen in vitro", "type": "cell-based", "conditions": "tested at 200 to 0.0002 μM; only at the top concentration", "experimental": "To assess potential effects on steroidogenesis, Compound 1 was screened for steroid modulation in vitro using the H295R adreno-cortical carcinoma cell line (at 200 to 0.0002 μM) and in an assay to monitor cell viability (MTT Kit). Compound 1 indicated steroid modulation potential (% over vehicle) only at 200 µM, the top concentration tested, with 100% cellular viability at concentrations ≤20 μM (90% viability at 200 μM)."}, "[2]": {"assay": "Phase 1 SAD/MAD, healthy volunteers: safety", "type": "in vivo, human", "text": "This is a first-in-human (FIH), Phase 1 study of Compound 1 that will characterize the safety, PK, and PD of Compound 1 after a single dose and after repeated dosing first in healthy adult volunteers and then in adolescents or adults with sickle cell disease. Initially, a dose range of Compound 1 in single ascending dose (SAD) escalation cohorts will be explored in healthy subjects. Enrollment of healthy subjects into 2-week multiple ascending dose (MAD) escalation cohorts will be initiated once the safety and PK from at least two SAD cohorts is available to inform the doses for the 2-week MAD portion of the study. The MAD cohorts will then run in parallel to the single dose cohorts. A single dose cohort is planned to understand food effects (FE) on the PK of Compound 1. […] Multiple dose studies in SCD subjects will then be initiated upon completion of MAD studies in healthy volunteers. Compound 1 will be administered in 25 mg and 100 mg tablets delivered orally.\nIn this study, SAD/MAD cohorts are randomized (3 to 1) to receive Compound 1 or placebo (P). Compound 1 was evaluated first in 4 healthy SAD cohorts and 4 healthy MAD (14-day dosing period) cohorts. Based on the safety, and PK/PD profile from HS, Compound 1 is then evaluated in 1 SCD SAD cohort and 2 SCD MAD cohorts. Specifically, based on the safety and pharmacokinetic/pharmacodynamics (PK/PD) profile in healthy volunteer studies, Compound 1 is evaluated in patients (pts) with SCD, first in a single dose (SD or SAD) cohort and then in multiple-dose (MD or MAD) cohorts (14-day and 12-week). Safety assessments include AEs, vital signs, ECGs and laboratory parameters. PK/PD blood sampling was performed on Day 1 (SAD/MAD) and Day 14 (MAD) and up to 72 h after the last dose and at the end-of-study visit. PD parameters included 2,3-DPG, ATP, and p50 in all cohorts with additional PD studies (including oxygen scan) performed only in the SCD cohorts. PD parameters included 2,3-DPG, ATP, p50, RBC deformability with controlled deoxygenation and reoxygenation (Lorrca® oxygen scan) and varying osmolality (Lorrca® osmoscan)). To maintain study blind, pt identifiers were removed when needed.\nFour healthy SAD cohorts were evaluated at doses of 200, 400, 700, and 1000 mg, and four healthy MAD cohorts received 200 to 600 mg total daily doses for 14 days at QD or BID dosing (100 mg BID, 200 mg BID, 300 mg BID, and 400 mg QD). In the food effect (FE) cohort, 10 healthy subjects received 200 mg of Compound 1 QD with and without food."}, "[3]": {"tested_on": "estradiol and testosterone levels", "assay": "Circulating estradiol and testosterone in healthy subjects, 14 days", "type": "in vivo, human", "conditions": "healthy subjects, 100, 200, 300 mg BID and 400 mg QD for 14 days; days 8, 14, 17", "experimental": "Effects on circulating levels of estradiol and testosterone in male and female healthy subjects receiving Compound 1 or placebo for a treatment period of 14 days were evaluated. Compound 1 was administered twice daily (BID) at dose levels of 100 mg, 200 mg, and 300 mg, and once daily (QD) at a dose level of 400 mg. Each dosing cohort was comprised of 9 subjects treated with Compound 1 and 3 subjects treated with placebo. Testosterone and estradiol levels were assessed prior to dosing (baseline), and then on days 8, 14 and 17."}, "[4]": {"tested_on": "Human SCD cells", "assay": "Ex vivo sickling under severe hypoxic conditions (2% oxygen)", "type": "cell-based", "conditions": "10 μM", "experimental": "Red blood cells from SCD patients were used to evaluate the effects of Compound 1 on Hgb affinity for oxygen (i.e., oxygen affinity) and sickling under hypoxic conditions. Cells were incubated at 37° C. for 1, 2, and 3 hr with HEPES buffered saline (HBS) (untreated), HBS+dimethyl sulfoxide (DMSO) (vehicle), or 10 μM Compound 1. To assess oxygen dissociation, Hgb oxygen equilibrium curves were collected during deoxygenation.\nCompound 1 (10 μM) reduced cell sickling under severe hypoxic conditions of 2% oxygen (PO2 of <20 mmHg) for up to 20 min (Table 9)."}}, "note": "“Also recorded” adds a separate entry of the source."}
{"smiles": "O=C([C@H](CO)c1ccccc1)N1CC2=C(C1)CN(S(=O)(=O)c1cnc3c(c1)OCCO3)C2", "note": "(single isomer, unassigned) [Compound 1]", "values": [{"measurement": "concentration at which steroid modulation potential (% over vehicle) was indicated", "setting": "[1]", "value": 200, "unit": "µM"}, {"measurement": "Grade 1 headache, incidence", "setting": "[2]; HS receiving 14 days of dosing", "value": 28, "unit": "%"}, {"measurement": "Grade 1 headache, incidence", "setting": "[2]; HS receiving a single dose", "value": 4, "unit": "%"}, {"measurement": "related TEAE of grade 2 or less: headache", "setting": "[2]; MAD cohorts", "value": 4, "unit": "n"}, {"measurement": "related TEAE of grade 2 or less: palpitations", "setting": "[2]; MAD cohorts", "value": 1, "unit": "n"}, {"measurement": "related TEAE of grade 2 or less: somnolence", "setting": "[2]; MAD cohorts", "value": 1, "unit": "n"}, {"measurement": "Any TEAE, n (%)", "setting": "[2]; MAD, N = 36", "value": "15 (42) n (%)"}, {"measurement": "Any grade 3 or greater TEAE, n (%)", "setting": "[2]; MAD, N = 36", "value": "0 n (%)"}, {"measurement": "Drug interruption, reduction, or discontinuation due to TEAE, n (%)", "setting": "[2]; MAD, N = 36", "value": "0 n (%)"}, {"measurement": "serious adverse events / AEs leading to withdrawal", "setting": "[2]; SAD and MAD cohorts of healthy volunteers", "value": "No serious adverse events (SAEs) or AEs leading to withdrawal"}, {"measurement": "related TEAE of grade 2 or less: headache", "setting": "[2]; SAD cohorts", "value": 1, "unit": "n"}, {"measurement": "related TEAE of grade 2 or less: transient ventricular tachycardia", "setting": "[2]; SAD cohorts", "value": 1, "unit": "n"}, {"measurement": "Any TEAE, n (%)", "setting": "[2]; SAD, N = 24", "value": "5 (21) n (%)"}, {"measurement": "Any grade 3 or greater TEAE, n (%)", "setting": "[2]; SAD, N = 24", "value": "1 (4) n (%)"}, {"measurement": "Drug interruption, reduction, or discontinuation due to TEAE, n (%)", "setting": "[2]; SAD, N = 24", "value": "0 n (%)"}, {"measurement": "change from baseline for testosterone and estradiol levels", "setting": "[3]", "value": "No effect on testosterone or estradiol levels; also recorded: no statistically significant changes"}, {"measurement": "% Protection", "setting": "[4]; 15 min in hypoxic conditions (maximum)", "value": 16, "unit": "%"}, {"measurement": "Net % of Sickled Cells", "setting": "[4]; 20 min in hypoxic conditions, DMSO 71", "value": 60, "unit": "%"}]}
